# Experimental data published in ChEMBL document CHEMBL4622922, “Discovery of novel potent GPR40 agonists containing imidazo[1,2-a]pyridine core as antidiabetic agents” (Bioorg Med Chem, 2020).
# Key:
# [1] = molecular target: Free fatty acid receptor 1 (Homo sapiens, UniProt O14842); assay: Agonist activity at GPR40 (unknown origin)
# [2] = Hypoglycemic activity in normoglycemic ICR mouse assessed as blood glucose level at 30 mg/kg, po administered 30 mins prior to glucose challenge and measured at 1 hr post-compound administration by OGTT; type: ADME, organism-based; settings: in vivo
# [3] = Hepatotoxicity in HFD fed/STZ-treated diabetic C57BL/6 mouse model assessed as increase in ALT level in blood at 30 mg/kg, po administered for 4 weeks; type: toxicity, organism-based; settings: in vivo, 672 h
# [4] = Hepatotoxicity in HFD fed/STZ-treated diabetic C57BL/6 mouse model assessed as increase in AST level in blood at 30 mg/kg, po administered for 4 weeks; type: toxicity, organism-based; settings: in vivo, 672 h
# [5] = Clearance in Sprague-Dawley rat at 10 mg/kg, po by LC-MS/MS analysis; type: ADME, organism-based; settings: in vivo
# [6] = Half life in Sprague-Dawley rat at 10 mg/kg, po by LC-MS/MS analysis; type: ADME, organism-based; settings: in vivo
# [7] = tested on: Mus musculus; assay: Glucose lowering activity in po dosed normoglycemic ICR mouse assessed as suppression of blood glucose level administered for 30 mins followed by glucose challenge and measured upto 120 mins by OGTT; type: functional, organism-based
# [8] = Cmax in Sprague-Dawley rat at 10 mg/kg, po by LC-MS/MS analysis; type: ADME, organism-based; set-up: dose 10 mg/kg, route oral; settings: in vivo
# [9] = Hypoglycemic activity in normoglycemic ICR mouse at 90 mg/kg, po administered for 30 mins followed by glucose challenge and measured upto 120 mins by OGTT; type: ADME, organism-based; settings: in vivo
# [10] = AUC (0 to 24 hrs) in Sprague-Dawley rat at 10 mg/kg, po by LC-MS/MS analysis; type: ADME, organism-based; set-up: time < 24 hr, dose 10 mg/kg, route oral; settings: in vivo
# [11] = Tmax in Sprague-Dawley rat at 10 mg/kg, po by LC-MS/MS analysis; type: ADME, organism-based; settings: in vivo
# Chain of Free fatty acid receptor 1 (O14842 whole entry): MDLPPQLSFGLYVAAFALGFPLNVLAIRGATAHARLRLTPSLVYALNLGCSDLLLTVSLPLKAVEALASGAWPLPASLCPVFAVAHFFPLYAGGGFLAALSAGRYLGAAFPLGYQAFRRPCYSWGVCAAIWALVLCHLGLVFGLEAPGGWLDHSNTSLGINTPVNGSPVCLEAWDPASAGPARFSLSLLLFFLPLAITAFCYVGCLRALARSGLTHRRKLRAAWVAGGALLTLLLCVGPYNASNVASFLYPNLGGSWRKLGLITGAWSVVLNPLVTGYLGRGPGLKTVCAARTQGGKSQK
Compound,EC50 [1],Activity [2],Activity [3],Activity [4],further results
CC#CC(CC(=O)O)c1ccc(OCc2ccc3nc(-c4ccc(C)cc4)cn3c2)cc1 (configuration not stated),507 nM,–,–,–,–
Cc1cc(OCCCS(C)(=O)=O)cc(C)c1-c1cccc(COc2ccc3c(c2)OC[C@H]3CC(=O)O)c1,–,–,Toxic,Toxic,–
CC#CC(CC(=O)O)c1ccc(OCc2ccc3nc(-c4ccc(C)cc4C)cn3c2)cc1 (configuration not stated),316 nM,–,–,–,–

# Continued, in another order:
EC50 [1],Compound,Activity [2],Activity [3],Activity [4],further results
231 nM,CC#CC(CC(=O)O)c1ccc(OCc2ccn3cc(-c4ccccc4OCC)nc3c2)cc1 (configuration not stated),Non-Toxic,–,–,–
47 nM,CC#CC(CC(=O)O)c1ccc(OCc2ccc3nc(-c4ccc(OC)cc4)cn3c2)cc1 (configuration not stated),Non-Toxic,Non-Toxic,Non-Toxic,CL/F [5]: 0.454 mL/min/kg; half-life [6]: 5.93 h; Activity [7]: Dose-dependent effect; Cmax [8]: 16300 ng/mL; Activity [9]: Non-Toxic; AUC(0-t) at 24 h [10]: 288 µg·h/mL; Tmax [11]: 8.26 h
